Data: a compilation of properties of binary mixtures (doi:10.1021/je060126x)

Assay: xn = mol fraction of the nth substance listed
Details: 298.15 K, 101 kPa

CCOS(=O)(=O)[O-].CC[n+]1ccn(C)c1 + CCO
Details | speed of sound [m/s] | viscosity [mPa·s]
x2 = 0.1271 | 1657 | 65.5
x2 = 0.1281 | 1655 | 66.1
x2 = 0.2039 | 1636 | 49.8
x2 = 0.3088 | 1603 | 34.69
x2 = 0.3256 | 1598 | 32.21
x2 = 0.3598 | 1586 | 28.75
x2 = 0.4147 | 1566 | 22.88
x2 = 0.4336 | 1558 | 21.39
x2 = 0.4604 | 1545 | 18.98
x2 = 0.5103 | 1525 | 15.4
x2 = 0.5223 | 1516 | 14.78
x2 = 0.5724 | 1490 | 11.74
x2 = 0.5926 | 1480 | 10.83
x2 = 0.5951 | 1467 | 10.65
x2 = 0.712 | 1407 | 6.13
x2 = 0.7174 | 1406 | 5.98
x2 = 0.7676 | 1369 | 4.68
x2 = 0.806 | 1339 | 3.86
x2 = 0.8666 | 1286 | 2.709
x2 = 0.9026 | 1253 | 2.189
x2 = 0.9062 | 1248 | 2.138
x2 = 0.9504 | 1202 | 1.628
x2 = 0.9522 | 1200 | 1.589
